Experimental findings from patent US12264134B2 (Merck Sharp & Dohme LLC, priority 2018, dated 2025) are described below.

Some results are limits rather than exact numbers.

Chain of IDO1 (P14902 whole entry): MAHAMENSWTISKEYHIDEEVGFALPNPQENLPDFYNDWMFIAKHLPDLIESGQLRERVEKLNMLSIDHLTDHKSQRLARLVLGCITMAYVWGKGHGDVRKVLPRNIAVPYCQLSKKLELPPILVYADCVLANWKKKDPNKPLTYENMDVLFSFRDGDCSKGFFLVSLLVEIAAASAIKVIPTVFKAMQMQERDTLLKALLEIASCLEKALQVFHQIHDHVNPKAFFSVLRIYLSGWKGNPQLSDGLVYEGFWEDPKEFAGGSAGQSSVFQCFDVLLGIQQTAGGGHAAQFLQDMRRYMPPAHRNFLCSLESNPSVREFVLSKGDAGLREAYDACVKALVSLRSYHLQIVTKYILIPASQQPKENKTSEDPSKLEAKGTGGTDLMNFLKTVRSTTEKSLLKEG

The test has as its target IDO1 (Homo sapiens, UniProt P14902). As to the kind of experiment: IDO1 Cellular Assay in HeLa Cells Stimulated with IFNγ. As to conditions: read-out: HeLa Cell Potency, IC50. Type of test: cell-based. Here is the method:
IDO1 Cellular Assay in HeLa Cells Stimulated with IFNγ
HeLa cells were cultured in complete HeLa culture medium (90% EMEM, 10% heat-inactivated fetal bovine serum) and expanded to about 1×10^9 cells. The cells were then collected and frozen down at 1×10^7 cells/vial in 1 mL frozen medium (90% complete HeLa culture medium, 10% DMSO).
Compounds to be tested were serially diluted in ten 3-fold steps in DMSO starting from 10 mM DMSO stocks in Echo low volume plate(s). Compound dilutions or DMSO alone were then dispensed from the dilution plate(s) into Greiner black 384-well assay plate(s) (catalog #781086, 50 nL/well) using an Echo 550 acoustic liquid handler (Labcyte).
Frozen HeLa cells were thawed and transferred into HeLa assay medium (99% complete HeLa culture medium, 1% Pen/Strep) with 20 mL medium/vial of cells. The cells were spun down at 250 g in a table top centrifuge for 5 min and suspended in same volume of HeLa assay medium. The cells were then counted and adjusted to a density of 2×10^5 cells/mL in HeLa assay medium. Sterile L-tryptophan were added to the cells with final concentration of 300 uM L-tryptophan. A small aliquot (2 mL/plate) of HeLa cells were set aside and were not treated with IFNγ, to serve as the Max-E control.
HeLa cells with and without IFNγ were dispensed to the respective wells of 384-well assay plates containing the compounds. The plates were incubated for about 48 hours at a 37° C., 5% CO2 incubator. Afterwards, 12 μL of 0.5 M methyl isonipecotate in dimethyl sulfoxide were added into each well and the plates were sealed and incubated at 37° C. without CO2 overnight. The plates were centrifuged for 1 min at 200×g. The resulting fluorescence was measured in a Spectramax plate reader (Molecular Devices) with a 400 nm excitation filter and a 510 nm emission filter.
The fluorescence intensity of each well was corrected for the background observed in wells with non-IFNγ-treated cells and was expressed as a fraction of the intensity observed in wells of IFNγ-treated cells and DMSO only. Potencies were calculated by linear least squares fit to the four parameter logistic IC50 equation.
`Cc1cccc(N2CCN(C(=O)Cn3nc(C(=O)N4CCC(OCCO)CC4)c4c3CCC4C(F)F)CC2)c1C` (single isomer, unassigned) [Example 13, 2-[4-(difluoromethyl)-3-[4-(2-hydroxyethoxy)piperidine-1-carbonyl]-5,6-dihydro-4H-cyclopenta[c]pyrazol-1-yl]-1-[4-(2,3-dimethylphenyl)piperazin-1-yl]ethanone]: the IC50 was found to be 31 nM. Then `Cc1cccc(N2CCN(C(=O)Cn3nc(C(=O)N4CC[C@H](O)[C@H](F)C4)c4c3CCC4C(F)F)CC2)c1C` (single isomer, unassigned) [Example 14], with 43.8 nM; and `Cc1cccc(N2CCN(C(=O)Cn3nc(C(=O)N4CCC(O)CC4)c4c3CCC4C(F)F)CC2)c1C` (single isomer, unassigned) [Example 15, 2-[4-(difluoromethyl)-3-(4-hydroxypiperidine-1-carbonyl)-5,6-dihydro-4H-cyclopenta[c]pyrazol-1-yl]-1-[4-(2,3-dimethylphenyl)piperazin-1-yl]ethanone], with 19.9 nM; and `Cc1cccc(N2CCN(C(=O)Cn3nc(C(=O)N4CC[C@H](O)[C@H](F)C4)c4c3C(O)CCC4)CC2)c1C` (single isomer, unassigned) [Example 25], with 496 nM. Then `Cc1cccc(N2CCN(C(=O)Cn3nc(C(=O)N4CC[C@@H](N)C(F)(F)C4)c4c3CCC4)CC2)c1C` (single isomer, unassigned) [Example 206, [(4R or 4S)-1-[1-[2-[4-(2,3-dimethylphenyl)piperazin-1-yl]-2-oxo-ethyl]-5,6-dihydro-4H-cyclopenta[c]pyrazole-3-carbonyl]-3,3-difluoro-4-piperidyl]ammonium;2,2,2-trifluoroacetate], with 27.9 nM; and `Cc1cccc(N2CCN(C(=O)Cn3nc(C(=O)N4CC[C@H](N)C(F)(F)C4)c4c3CCC4)CC2)c1C` (single isomer, unassigned) [Example 209, [(4S or 4R)-1-[1-[2-[4-(2,3-dimethylphenyl)piperazin-1-yl]-2-oxo-ethyl]-5,6-dihydro-4H-cyclopenta[c]pyrazole-3-carbonyl]-3,3-difluoro-4-piperidyl]ammonium;2,2,2-trifluoroactate], with 36.8 nM; and `Cc1cccc(N2CCN(C(=O)Cn3nc(C(=O)N4CCC(F)(F)[C@H](O)C4)c4c3CCC4)CC2)c1C` (single isomer, unassigned) [Example 210, 2-[3-[(3R or 3S)-4,4-difluoro-3-hydroxy-piperidine-1-carbonyl]-5,6-dihydro-4H-cyclopenta[c]pyrazol-1-yl]-1-[4-(2,3-dimethylphenyl)piperazin-1-yl]ethanone], with 63.5 nM. With `Cc1cccc(N2CCN(C(=O)Cn3nc(C(=O)N4CCC(F)(F)[C@@H](O)C4)c4c3CCC4)CC2)c1C` (single isomer, unassigned) [Example 213, 2-[3-[(3S or 3R)-4,4-difluoro-3-hydroxy-piperidine-1-carbonyl]-5,6-dihydro-4H-cyclopenta[c]pyrazol-1-yl]-1-[4-(2,3-dimethylphenyl)piperazin-1-yl]ethanone] the figure was 90.9 nM; with `Cc1cccc(N2CCN(C(=O)Cn3nc(C(=O)N4CCC(O)CC4)c4c3C[C@H]3C[C@@H]43)C(C(F)F)C2)c1C` (single isomer, unassigned) [Example 386], 14 nM. Consider `Cc1cccc(N2CCN(C(=O)Cn3nc(C(=O)N4CC[C@H](O)[C@@H](F)C4)c4c3CC(O)C4)CC2)c1C` (single isomer, unassigned) [Example 415], for which the concentration for half-maximal inhibition (IC50) was determined as 341 nM. Take `Cc1cccc(N2CCN(C(=O)Cn3nc(C(=O)N4CC[C@H](O)[C@@H](F)C4)c4c3CC(O)C4)CC2)c1C` (single isomer, unassigned) [Example 416]: the IC50 was found to be 75.7 nM. With `Cc1cccc(N2CCN(C(=O)Cn3nc(C(=O)N4CC[C@@H](O)[C@@H](F)C4)c4c3C(O)CC4)CC2)c1C` (single isomer, unassigned) [Example 422] the figure was 2950 nM; with `Cc1cccc(N2CCN(C(=O)Cn3nc(C(=O)N4CC[C@@H](O)[C@@H](F)C4)c4c3C(O)CC4)CC2)c1C` (single isomer, unassigned) [Example 423], 195 nM; with `O=C(Cn1nc(C(=O)N2CC[C@H](O)[C@H](F)C2)c2c1CCC2)N1CCN(C2CCCc3ccccc32)CC1` (single isomer, unassigned) [Example 426], 302 nM. Take `O=C(Cn1nc(C(=O)N2CC[C@H](O)[C@H](F)C2)c2c1CCC2)N1CCN(C2CCCc3ccccc32)CC1` (single isomer, unassigned) [Example 427]: the IC50 was more than 10000 nM. Take `O=C(Cn1nc(C(=O)N2CCC(O)CC2)c2c1CCC2)N1CCN(C2CCCc3ccccc32)CC1` (single isomer, unassigned) [Example 429]: the IC50 stood at 183 nM. With `O=C(Cn1nc(C(=O)N2CCC(O)CC2)c2c1CCC2)N1CCN(C2CCCc3ccccc32)CC1` (single isomer, unassigned) [Example 430], the half-maximal inhibitory concentration (IC50) was 184 nM. With `O=C(Cn1nc(C(=O)N2CCC(O)CC2)c2c1CCC2)N1CCN(C2CCCc3ccccc32)CC1` (single isomer, unassigned) [Example 431] the figure was 3440 nM; with `O=C(Cn1nc(C(=O)N2CCC(O)CC2)c2c1CCC2)N1CCN(C2CCc3ccccc32)CC1` (single isomer, unassigned) [Example 436, 1-(4-(2,3-dihydro-1H-inden-1-yl)piperazin-1-yl)-2-(3-(4-hydroxypiperidine-1-carbonyl)-5,6-dihydrocyclopenta[c]pyrazol-1(4H)-yl)ethanone], 22.8 nM.

In the case of `O=C(Cn1nc(C(=O)N2CCC(O)CC2)c2c1CCC2)N1CCN(C2CCc3ccccc32)CC1` (single isomer, unassigned) [Example 437, 1-(4-(2,3-dihydro-1H-inden-1-yl)piperazin-1-yl)-2-(3-(4-hydroxypiperidine-1-carbonyl)-5,6-dihydrocyclopenta[c]pyrazol-1(4H)-yl)ethanone], the IC50 was determined as 810 nM. Turning to `O=C(Cn1nc(C(=O)N2CC[C@H](O)[C@H](F)C2)c2c1CCC2)N1CCN(C2CCc3ccccc32)CC1` (single isomer, unassigned) [Example 439], the half-inhibitory concentration (IC50) was 168 nM.

For `O=C(Cn1nc(C(=O)N2CC[C@H](O)[C@H](F)C2)c2c1CCC2)N1CCN(C2CCc3ccccc32)CC1` (single isomer, unassigned) [Example 440], the half-maximal inhibitory concentration (IC50) was found to be 2520 nM. With `Cc1cccc(N2CCN(C(=O)Cn3nc(C(=O)N4CCC(O)(CF)C4)c4c3CCC4)CC2)c1C` (single isomer, unassigned) [Example 482, (R or S)-1-(4-(2,3-dimethylphenyl)piperazin-1-yl)-2-(3-(3-(fluoromethyl)-3-hydroxypyrrolidine-1-carbonyl)-5,6-dihydro-cyclopenta[c]pyrazol-1(4H)-yl)ethanone] the figure was 22.3 nM; with `Cc1cccc(N2CCN(C(=O)Cn3nc(C(=O)N4CCC(O)(CF)C4)c4c3CCC4)CC2)c1C` (single isomer, unassigned) [Example 484, (S or R)-1-(4-(2,3-dimethylphenyl)piperazin-1-yl)-2-(3-(3-fluoromethyl)-3-hydroxypyrrolidine-1-carbonyl)-5,6-dihydrocyclopenta[c] pyrazol-1(4H)-yl) ethanone], 42.6 nM; with `Cc1cccc(N2CCN(C(=O)C(C)n3nc(C(=O)N4CCC(O)CC4)c4c3CCC4)CC2)c1C` (single isomer, unassigned) [Example 489, (R or S)-1-(4-(2,3-dimethylphenyl)piperazin-1-yl)-2-(3-(4-hydroxypiperidine-1-carbonyl)-5,6-dihydro-cyclopenta[c]pyrazol-1(4H)-yl)propan-1-one], 393 nM. Turning to `Cc1cccc(N2CCN(C(=O)Cn3nc(C(=O)N4CC[C@H](N5CCC(O)CC5)[C@H](F)C4)c4c3CC(F)(F)CC4)CC2)c1C` (stereo in doubt) [Example 23, 2-[6,6-difluoro-3-[rac-(3R,4S)-3-fluoro-4-(4-hydroxy-1-piperidyl)piperidine-1-carbonyl]-5,7-dihydro-4H-indazol-1-yl]-1-[4-(2,3-dimethylphenyl)piperazin-1-yl]ethanone], the IC50 was 77.5 nM. With `Cc1cccc(N2CCN(C(=O)Cn3nc(C(=O)N4CC[C@@H](N5CCC(O)CC5)[C@@H](F)C4)c4c3CC(F)(F)CC4)CC2)c1C` (stereo in doubt) [Example 24, 2-[6,6-difluoro-3-[rac-(3S,4R)-3-fluoro-4-(4-hydroxy-1-piperidyl)piperidine-1-carbonyl]-5,7-dihydro-4H-indazol-1-yl]-1-[4-(2,3-dimethylphenyl)piperazin-1-yl]ethanone] the figure was 195 nM.
